Results from ChEMBL document CHEMBL1201862, “PubChem BioAssay data set” (2004).
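Five concentrations, 48 hours, 96-well plates. GI50 = concentration required for 50% inhibition of growth.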 The source made the active and inactive calls. Cut-off read from the data, not from the text of the source: active = GI50 up to about 1.1 µM and inactive = higher.

Experiments:
Experiment in all cases: inhibition of tumour cell growth, NCI panel, 48 h
HOP-62 = system: HOP-62
786-0 = system: 786-0
SF-295 = system: SF-295
NCI-H522 = system: NCI-H522
SK-MEL-2 = system: SK-MEL-2
RXF 393 = system: RXF 393
NCI-H23 = system: NCI-H23
LOX IMVI = system: LOX IMVI
HL-60 = system: HL-60
UACC-62 = system: UACC-62
TK-10 = system: TK-10
COLO 205 = system: COLO 205
ACHN = system: ACHN
CCRF-CEM = system: CCRF-CEM
IGROV-1 = system: IGROV-1
SK-MEL-28 = system: SK-MEL-28
SNB-75 = system: SNB-75

| Structure (SMILES) | GI50 (HOP-62) | GI50 (786-0) | GI50 (SF-295) | GI50 (NCI-H522) | GI50 (SK-MEL-2) | GI50 (RXF 393) | GI50 (NCI-H23) | GI50 (LOX IMVI) | GI50 (HL-60) | GI50 (UACC-62) | GI50 (TK-10) | GI50 (COLO 205) | GI50 (ACHN) | GI50 (CCRF-CEM) | GI50 (IGROV-1) | GI50 (SK-MEL-28) | GI50 (SNB-75) |
| --- | --- | --- | --- | --- | --- | --- | --- | --- | --- | --- | --- | --- | --- | --- | --- | --- | --- |
| O=C(Nc1cc(Cl)c(Cl)cc1Cl)C(=O)C(C(=O)c1ccc(Cl)c(Cl)c1)C1OC(=O)c2ccccc21 (centres undefined) | 12.6 µM (inactive) | 13.4 µM (inactive) | 11.9 µM (inactive) | 10.9 µM (inactive) | 14 µM (inactive) | 8.3 µM (inactive) | > 10 µM (inactive) | 16.4 µM (inactive) | 18 µM (inactive) | 16.1 µM (inactive) | 26.1 µM (inactive) | 15 µM (inactive) | 14.5 µM (inactive) | 5.35 µM (inactive) | – | – | – |
| COc1ccc(NC(=O)CC/C(CC(=O)C(C)(C)C)=N\NC(=O)C(N)=O)cc1 | > 100 µM (inactive) | > 100 µM (inactive) | > 100 µM (inactive) | – | > 100 µM (inactive) | > 100 µM (inactive) | > 100 µM (inactive) | > 100 µM (inactive) | > 100 µM (inactive) | > 100 µM (inactive) | – | > 100 µM (inactive) | > 100 µM (inactive) | > 100 µM (inactive) | > 100 µM (inactive) | > 100 µM (inactive) | – |
| N#C/C(=C/c1ccc2c(c1)OCO2)C(=O)c1ccccc1 | > 100 µM (inactive) | > 100 µM (inactive) | > 100 µM (inactive) | > 100 µM (inactive) | > 100 µM (inactive) | – | > 100 µM (inactive) | – | – | > 100 µM (inactive) | > 100 µM (inactive) | > 100 µM (inactive) | > 100 µM (inactive) | > 100 µM (inactive) | > 100 µM (inactive) | > 100 µM (inactive) | > 100 µM (inactive) |
| COC(=O)C1CCCC2(C1)OCCO2 (centres undefined) | > 100 µM (inactive) | > 100 µM (inactive) | > 100 µM (inactive) | > 100 µM (inactive) | > 100 µM (inactive) | > 100 µM (inactive) | > 100 µM (inactive) | > 100 µM (inactive) | – | > 100 µM (inactive) | > 100 µM (inactive) | > 100 µM (inactive) | > 100 µM (inactive) | > 100 µM (inactive) | > 100 µM (inactive) | > 100 µM (inactive) | > 100 µM (inactive) |
| Cc1ccc(S(=O)(=O)N/N=C(/CC(=O)c2c(C)[n+]([O-])c3ccccc3[n+]2[O-])C(=O)Nc2ccc(C)c(C)c2)cc1 | > 100 µM (inactive) | > 100 µM (inactive) | > 100 µM (inactive) | 70.1 µM (inactive) | > 100 µM (inactive) | > 100 µM (inactive) | > 100 µM (inactive) | – | – | 79.8 µM (inactive) | – | 34.7 µM (inactive) | 25.1 µM (inactive) | – | 62.8 µM (inactive) | > 100 µM (inactive) | > 100 µM (inactive) |
| Nc1nc(Cl)cc(NCC(O)CO)n1 (centres undefined) | > 100 µM (inactive) | > 100 µM (inactive) | > 100 µM (inactive) | – | > 100 µM (inactive) | > 100 µM (inactive) | > 100 µM (inactive) | > 100 µM (inactive) | > 100 µM (inactive) | > 100 µM (inactive) | > 100 µM (inactive) | > 100 µM (inactive) | – | > 100 µM (inactive) | > 100 µM (inactive) | > 100 µM (inactive) | > 100 µM (inactive) |
| O=C1c2ccccc2C2(O)N(c3ccccc3)C(=S)N(c3ccccc3)C12O (centres undefined) | > 100 µM (inactive) | > 100 µM (inactive) | > 100 µM (inactive) | > 100 µM (inactive) | > 100 µM (inactive) | > 100 µM (inactive) | > 100 µM (inactive) | > 100 µM (inactive) | – | > 100 µM (inactive) | > 100 µM (inactive) | > 100 µM (inactive) | > 100 µM (inactive) | > 100 µM (inactive) | > 100 µM (inactive) | > 100 µM (inactive) | > 100 µM (inactive) |
| Cc1ccccc1/C=C/C(=O)c1ccccc1 | 16.7 µM (inactive) | 16.3 µM (inactive) | – | 21.1 µM (inactive) | > 10 µM (inactive) | – | 17.6 µM (inactive) | – | – | 19.9 µM (inactive) | – | 21.4 µM (inactive) | 18.8 µM (inactive) | 29.6 µM (inactive) | 25.2 µM (inactive) | 18.7 µM (inactive) | 19.5 µM (inactive) |
| O=C(CC1C(=O)Nc2ccccc2S1(=O)=O)Nc1ccc(Cl)cc1 (centres undefined) | – | 14.5 µM (inactive) | 45.6 µM (inactive) | 16.3 µM (inactive) | 21.1 µM (inactive) | 15.9 µM (inactive) | 38.9 µM (inactive) | 16.9 µM (inactive) | 12.1 µM (inactive) | 43 µM (inactive) | 20 µM (inactive) | – | 20.4 µM (inactive) | 20.3 µM (inactive) | 17.2 µM (inactive) | 20 µM (inactive) | 16.9 µM (inactive) |
| Cc1cc2c(=O)c(C)n[nH]c2c(C#N)c1C | > 100 µM (inactive) | > 100 µM (inactive) | > 100 µM (inactive) | – | > 10 µM (inactive) | > 100 µM (inactive) | > 100 µM (inactive) | > 100 µM (inactive) | > 100 µM (inactive) | > 100 µM (inactive) | > 100 µM (inactive) | > 100 µM (inactive) | > 100 µM (inactive) | > 100 µM (inactive) | > 100 µM (inactive) | > 100 µM (inactive) | > 100 µM (inactive) |
| COC1CC(O)C(OC(=O)c2ccccc2)C(C)O1 (centres undefined) | > 100 µM (inactive) | > 100 µM (inactive) | > 100 µM (inactive) | > 100 µM (inactive) | – | – | > 100 µM (inactive) | > 100 µM (inactive) | > 100 µM (inactive) | > 100 µM (inactive) | > 100 µM (inactive) | > 100 µM (inactive) | – | > 100 µM (inactive) | > 100 µM (inactive) | > 100 µM (inactive) | – |
| COc1ccc(-c2cc(=O)c3cc(C)c(C)c(C(=O)O)c3o2)cc1 | > 100 µM (inactive) | > 100 µM (inactive) | > 100 µM (inactive) | – | > 100 µM (inactive) | > 100 µM (inactive) | > 100 µM (inactive) | – | > 100 µM (inactive) | 13.6 µM (inactive) | – | > 100 µM (inactive) | 17.9 µM (inactive) | > 100 µM (inactive) | > 100 µM (inactive) | > 100 µM (inactive) | > 100 µM (inactive) |
| CC1(c2cccc(C3CC4(CCC3=O)OCCCCO4)c2)OCCO1 (centres undefined) | > 100 µM (inactive) | > 100 µM (inactive) | > 100 µM (inactive) | > 100 µM (inactive) | > 100 µM (inactive) | – | > 100 µM (inactive) | > 100 µM (inactive) | > 100 µM (inactive) | > 100 µM (inactive) | > 100 µM (inactive) | > 100 µM (inactive) | > 100 µM (inactive) | > 100 µM (inactive) | > 100 µM (inactive) | > 100 µM (inactive) | 92.7 µM (inactive) |
| CCc1c(OC(C)=O)c2c(NC3OCC(OC(C)=O)C(OC(C)=O)C3OC(C)=O)nc(SC)nc2oc1=O (centres undefined) | > 100 µM (inactive) | > 100 µM (inactive) | > 100 µM (inactive) | – | > 100 µM (inactive) | > 100 µM (inactive) | > 100 µM (inactive) | > 100 µM (inactive) | > 100 µM (inactive) | > 100 µM (inactive) | > 100 µM (inactive) | > 100 µM (inactive) | > 100 µM (inactive) | > 100 µM (inactive) | > 100 µM (inactive) | – | > 100 µM (inactive) |
| COc1ccc(OC)c2cc(C3(C)SCCCS3)ccc12 | > 100 µM (inactive) | 73.6 µM (inactive) | 78.2 µM (inactive) | – | > 100 µM (inactive) | 20.5 µM (inactive) | 84.3 µM (inactive) | > 100 µM (inactive) | 59.3 µM (inactive) | > 100 µM (inactive) | > 100 µM (inactive) | > 100 µM (inactive) | > 100 µM (inactive) | 71 µM (inactive) | > 100 µM (inactive) | > 100 µM (inactive) | 56.6 µM (inactive) |
| O=C(NC1CC1)c1c(O)[nH]c(=S)[nH]c1=O | > 100 µM (inactive) | > 100 µM (inactive) | > 100 µM (inactive) | > 100 µM (inactive) | > 100 µM (inactive) | – | > 100 µM (inactive) | > 100 µM (inactive) | > 100 µM (inactive) | > 100 µM (inactive) | > 100 µM (inactive) | > 100 µM (inactive) | > 100 µM (inactive) | > 100 µM (inactive) | > 100 µM (inactive) | > 100 µM (inactive) | > 100 µM (inactive) |
| C=C1C(=O)C23CC1CCC2C12CO[C@@H]4OCC(C)(CC[C@@H]1OC3=O)C42 (some centres undefined) | 27 µM (inactive) | 2.24 µM (inactive) | 16.9 µM (inactive) | 1.01 µM (active) | 11.9 µM (inactive) | 2.51 µM (inactive) | 6.04 µM (inactive) | – | 0.569 µM (active) | 11.7 µM (inactive) | 5.75 µM (inactive) | 2.1 µM (inactive) | 3.14 µM (inactive) | 2.38 µM (inactive) | 6.95 µM (inactive) | 2.23 µM (inactive) | 16.4 µM (inactive) |
| COc1ncn(C2C=C(CO)C(O)C2O)c(=O)n1 (centres undefined) | > 100 µM (inactive) | > 100 µM (inactive) | – | > 100 µM (inactive) | > 100 µM (inactive) | > 100 µM (inactive) | – | – | > 100 µM (inactive) | > 100 µM (inactive) | > 100 µM (inactive) | > 100 µM (inactive) | > 100 µM (inactive) | – | > 100 µM (inactive) | > 100 µM (inactive) | > 100 µM (inactive) |
